Literature values in patent US20080274215A1, “COMPOSITION FOR TREATMENT OF COLD AND FLU” (NORTHERN HOLDINGS INC., priority 2007, published 2008).

For `C=C1CCC2C(C)(CO)C(O)CCC2(C)C1C/C=C1/C(=O)OCC1O` (stereo not shown) [AG, 3-[2-[decahydro-6-hydroxy-5-(hydroxymethyl)-5,8a-dimethyl-2-methylene-1-napthalenyl]ethylidene]dihydro-4-hydroxy-2(3H)-furanone], the solubility in water is listed as “sparingly soluble”.
